Measured values reported in patent publication US9738634B2, “Heterocyclic amide compound and herbicide” (SYNGENTA PARTICIPATIONS AG, priority 2013, dated 2017).

What was measured:
Type in all cases: in vivo
corn = experiment: Test Example 3: soil treatment, effect on crop; c: corn; settings: soil treatment, treatment dosage 320 g/ha
How it was run: (§1)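 Crop and weed responses were judged three weeks after a uniform surface spray of the water-diluted emulsion at the given g/ha rate. Seeds sat beneath about 1.5 cm of sterilized diluvial soil, and boxes stood in a greenhouse at 25 to 30° C.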

crabgrass = experiment: Test Example 3: weedkilling efficacy through soil treatment; D: crabgrass; settings: soil treatment, treatment dosage 320 g/ha
How it was run: as §1

bulrush [1] = experiment: Test Example 2: weedkilling efficacy, growth period weed treatment in the submerged state; B: bulrush; settings: treatment dosage 320 g/ha
How it was run: (§2)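 First, alluvial soil in pots is flooded to 4 cm and mixed seed is sown. Next, plants grow in a greenhouse at 25 to 30° C until the 1-2 leaf stage. Then diluted emulsion is applied onto the water surface at the given g/ha rate, and injury is assessed after 3 weeks.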

barnyard grass [2] = experiment: Test Example 1: weedkilling efficacy, preemergent weed treatment in the submerged state; A: barnyard grass; settings: treatment dosage 320 g/ha
How it was run: (§3)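 Alluvial soil in Wagner pots flooded to 4 cm; barnyard grass, bulrush and oval-leafed pondweed seeds sown, then 2.5-leaf rice seedlings transplanted. Same day, emulsified compound diluted in water to set g/ha dosages and applied to water surface; greenhouse 25–30 °C, effect scored by criteria after 3 weeks.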

wheat = experiment: Test Example 3: soil treatment, effect on crop; e: wheat; settings: soil treatment, treatment dosage 320 g/ha
How it was run: as §1

oval-leafed pondweed [3] = experiment: Test Example 1: weedkilling efficacy, preemergent weed treatment in the submerged state; C: oval-leafed pondweed; settings: treatment dosage 320 g/ha
How it was run: as §3

Indian mallow = experiment: Test Example 3: weedkilling efficacy through soil treatment; K: Indian mallow; settings: soil treatment, treatment dosage 320 g/ha
How it was run: as §1

Italian ryegrass = experiment: Test Example 3: weedkilling efficacy through soil treatment; I: Italian ryegrass; settings: soil treatment, treatment dosage 320 g/ha
How it was run: as §1

chickweed = experiment: Test Example 3: weedkilling efficacy through soil treatment; N: chickweed; settings: soil treatment, treatment dosage 320 g/ha
How it was run: as §1

wild oat = experiment: Test Example 3: weedkilling efficacy through soil treatment; G: wild oat; settings: soil treatment, treatment dosage 320 g/ha
How it was run: as §1

fig-leafed goosefoot = experiment: Test Example 3: weedkilling efficacy through soil treatment; M: fig-leafed goosefoot; settings: soil treatment, treatment dosage 320 g/ha
How it was run: as §1

barnyard grass [4] = experiment: Test Example 3: weedkilling efficacy through soil treatment; F: barnyard grass; settings: soil treatment, treatment dosage 320 g/ha
How it was run: as §1

oval-leafed pondweed [5] = experiment: Test Example 2: weedkilling efficacy, growth period weed treatment in the submerged state; C: oval-leafed pondweed; settings: treatment dosage 320 g/ha
How it was run: as §2

redroot pigweed = experiment: Test Example 3: weedkilling efficacy through soil treatment; L: redroot pigweed; settings: soil treatment, treatment dosage 320 g/ha
How it was run: as §1

green foxtail = experiment: Test Example 3: weedkilling efficacy through soil treatment; E: green foxtail; settings: soil treatment, treatment dosage 320 g/ha
How it was run: as §1

common wind-grass = experiment: Test Example 3: weedkilling efficacy through soil treatment; J: common wind-grass; settings: soil treatment, treatment dosage 320 g/ha
How it was run: as §1

bulrush [6] = experiment: Test Example 1: weedkilling efficacy, preemergent weed treatment in the submerged state; B: bulrush; settings: treatment dosage 320 g/ha
How it was run: as §3

rapeseed = experiment: Test Example 3: soil treatment, effect on crop; g: rapeseed; settings: soil treatment, treatment dosage 320 g/ha
How it was run: as §1

barnyard grass [7] = experiment: Test Example 2: weedkilling efficacy, growth period weed treatment in the submerged state; A: barnyard grass; settings: treatment dosage 320 g/ha
How it was run: as §2

transplanted rice = experiment: Test Example 1: preemergent weed treatment in the submerged state, effect on crop; a: transplanted rice; settings: treatment dosage 320 g/ha
How it was run: as §3

soybean = experiment: Test Example 3: soil treatment, effect on crop; d: soybean; settings: soil treatment, treatment dosage 320 g/ha
How it was run: as §1

black-grass = experiment: Test Example 3: weedkilling efficacy through soil treatment; H: black-grass; settings: soil treatment, treatment dosage 320 g/ha
How it was run: as §1

beet = experiment: Test Example 3: soil treatment, effect on crop; f: beet; settings: soil treatment, treatment dosage 320 g/ha
How it was run: as §1

catchweed = experiment: Test Example 3: weedkilling efficacy through soil treatment; O: catchweed; settings: soil treatment, treatment dosage 320 g/ha
How it was run: as §1

directly sown rice = experiment: Test Example 3: soil treatment, effect on crop; b: directly sown rice; settings: soil treatment, treatment dosage 320 g/ha
How it was run: as §1

birds-eye speedwell = experiment: Test Example 3: weedkilling efficacy through soil treatment; p: birds-eye speedwell; settings: soil treatment, treatment dosage 320 g/ha
How it was run: as §1

## Cc1cc(F)nc(NC(=O)C(C)(C)N2COCN(c3ccccc3)C2=O)c1 [A-2-20]
corn
  c: corn, effect on crop grade: 1 (weed kill ratio 5% or more, less than 20%)
crabgrass
  D: crabgrass, weedkilling efficacy grade: 5 (weed kill ratio 90% or more, (practically complete withering))
Bulrush [1]
  B (bulrush) weedkilling efficacy grade: 5 (weed kill ratio 90% or more, (practically complete withering))
Barnyard grass [2]
  A: barnyard grass, weed kill grade: 5 (weed kill ratio 90% or more, (practically complete withering))
wheat
  e: wheat, effect on crop grade: 3 (weed kill ratio 40% or more, less than 70%)
oval-leafed pondweed [3]
  C: oval-leafed pondweed, weed kill grade: 5 (weed kill ratio 90% or more, (practically complete withering))
Indian mallow
  K: Indian mallow, weedkilling efficacy grade: 4 (weed kill ratio 70% or more, less than 90%)
Italian ryegrass
  I: Italian ryegrass, weedkilling efficacy grade: 5 (weed kill ratio 90% or more, (practically complete withering))
chickweed
  N: chickweed, weedkilling efficacy grade: 4 (weed kill ratio 70% or more, less than 90%)
Wild oat
  G: wild oat, weedkilling efficacy grade: 5 (weed kill ratio 90% or more, (practically complete withering))
fig-leafed goosefoot
  M: fig-leafed goosefoot, weedkilling efficacy grade: 4 (weed kill ratio 70% or more, less than 90%)
Barnyard grass [4]
  F: barnyard grass, weedkilling efficacy grade: 5 (weed kill ratio 90% or more, (practically complete withering))
oval-leafed pondweed [5]
  C (oval-leafed pondweed) weedkilling efficacy grade: 5 (weed kill ratio 90% or more, (practically complete withering))
Redroot pigweed
  L: redroot pigweed, weedkilling efficacy grade: 4 (weed kill ratio 70% or more, less than 90%)
Green foxtail
  E: green foxtail, weedkilling efficacy grade: 5 (weed kill ratio 90% or more, (practically complete withering))
Common wind-grass
  J: common wind-grass, weedkilling efficacy grade: 5 (weed kill ratio 90% or more, (practically complete withering))
Bulrush [6]
  B: bulrush, weed kill grade: 5 (weed kill ratio 90% or more, (practically complete withering))
rapeseed
  g: rapeseed, effect on crop grade: 4 (weed kill ratio 70% or more, less than 90%)
Barnyard grass [7]
  A (barnyard grass) weedkilling efficacy grade: 5 (weed kill ratio 90% or more, (practically complete withering))
Transplanted rice
  a: transplanted rice, effect on crop grade: 3 (weed kill ratio 40% or more, less than 70%)
soybean
  d: soybean, effect on crop grade: 3 (weed kill ratio 40% or more, less than 70%)
black-grass
  H: black-grass, weedkilling efficacy grade: 5 (weed kill ratio 90% or more, (practically complete withering))
beet
  f: beet, effect on crop grade: 4 (weed kill ratio 70% or more, less than 90%)
catchweed
  O: catchweed, weedkilling efficacy grade: 5 (weed kill ratio 90% or more, (practically complete withering))
Directly sown rice
  b: directly sown rice, effect on crop grade: 5 (weed kill ratio 90% or more, (practically complete withering))
birds-eye speedwell
  P: birds-eye speedwell, weedkilling efficacy grade: 5 (weed kill ratio 90% or more, (practically complete withering))
